Data: the supplement of paper PMC11208160

Assay: recombinant UMI read abundance after kanamycin selection (control-corrected) (log10(CPM+1)); higher = more efficient recombination; extreme values may be limits of the assay; sequences stand for … in AGTGCAGAGAAAATCGGCCAGTTTTCTCTGCCTGCAGTCCGCATGCCGTGGGACCCCTTGGGTTCTAACCTGTTGCCTAGATTTATGCAGCGGACTGCCTTTCTCCCAAAGTGATAAACCGG…AGGTTGGTTTCACT; site = the 11-nt donor
Outline: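 For the IS621 bridge recombinase, a pooled Escherichia coli screen tested donor and donor-binding-loop pairs. Cells received the pair library together with a target plasmid encoding a fixed target and T7-inducible recombinase, then went onto IPTG (0.07 mM) plus kanamycin or unselected plates in duplicate. After PCR across the donor–target junction and sequencing, recombinant UMI counts were normalized to CPM, averaged, and scaled by control-derived factors. Each value is given as log10(CPM+1).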
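Note: IS621 bridge recombinase in Escherichia coli cells against a fixed T5 target plasmid.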

CGATCATCATGGACCGGTTTTCCCGGTAATCCGTATTTGCT (site CCATTATCTAG)
recombinant UMI read abundance (log10): 0

CGATCATCATGGACCGGTTTTCCCGGTAATCCGTATTTGCT (site CCGTCATCTAG)
recombinant UMI read abundance (log10): 0.747

CGATCATCATGGACCGGTTTTCCCGGTAATCCGTATTTGCT (site CGAACACCTAG)
recombinant UMI read abundance (log10): 0

CGATCATCATGGACCGGTTTTCCCGGTAATCCGTATTTGCT (site CGAACATCTAG)
recombinant UMI read abundance (log10): 0.278

CGATCATCATGGACCGGTTTTCCCGGTAATCCGTATTTGCT (site CGAACATCTAT)
recombinant UMI read abundance (log10): 0.00401

CGATCATCATGGACCGGTTTTCCCGGTAATCCGTATTTGCT (site CGAACATCTGG)
recombinant UMI read abundance (log10): 0

CGATCATCATGGACCGGTTTTCCCGGTAATCCGTATTTGCT (site CGAACGTCTAG)
recombinant UMI read abundance (log10): 0.00334

CGATCATCATGGACCGGTTTTCCCGGTAATCCGTATTTGCT (site CGAAGATCTAG)
recombinant UMI read abundance (log10): 0

CGATCATCATGGACCGGTTTTCCCGGTAATCCGTATTTGCT (site CGACAATCTAG)
recombinant UMI read abundance (log10): 0.437

CGATCATCATGGACCGGTTTTCCCGGTAATCCGTATTTGCT (site CGACCAACTAG)
recombinant UMI read abundance (log10): 0.00386

CGATCATCATGGACCGGTTTTCCCGGTAATCCGTATTTGCT (site CGACCATCTAC)
recombinant UMI read abundance (log10): 0

CGATCATCATGGACCGGTTTTCCCGGTAATCCGTATTTGCT (site CGACCATCTAG)
recombinant UMI read abundance (log10): 2.55

CGATCATCATGGACCGGTTTTCCCGGTAATCCGTATTTGCT (site CGACCATCTCG)
recombinant UMI read abundance (log10): 0.019

CGATCATCATGGACCGGTTTTCCCGGTAATCCGTATTTGCT (site CGACCCTCTAG)
recombinant UMI read abundance (log10): 0.00441

CGATCATCATGGACCGGTTTTCCCGGTAATCCGTATTTGCT (site CGAGCAGCTAG)
recombinant UMI read abundance (log10): 0

CGATCATCATGGACCGGTTTTCCCGGTAATCCGTATTTGCT (site CGAGCATCTAA)
recombinant UMI read abundance (log10): 0.0187

CGATCATCATGGACCGGTTTTCCCGGTAATCCGTATTTGCT (site CGAGCATCTAG)
recombinant UMI read abundance (log10): 0

CGATCATCATGGACCGGTTTTCCCGGTAATCCGTATTTGCT (site CGAGCATCTTG)
recombinant UMI read abundance (log10): 0

CGATCATCATGGACCGGTTTTCCCGGTAATCCGTATTTGCT (site CGAGCTTCTAG)
recombinant UMI read abundance (log10): 0

CGATCATCATGGACCGGTTTTCCCGGTAATCCGTATTTGCT (site CGAGTATCTAG)
recombinant UMI read abundance (log10): 0

CGATCATCATGGACCGGTTTTCCCGGTAATCCGTATTTGCT (site CGATAAACTAG)
recombinant UMI read abundance (log10): 0.0203

CGATCATCATGGACCGGTTTTCCCGGTAATCCGTATTTGCT (site CGATAATCTAC)
recombinant UMI read abundance (log10): 0

CGATCATCATGGACCGGTTTTCCCGGTAATCCGTATTTGCT (site CGATAATCTAG)
recombinant UMI read abundance (log10): 0.558

CGATCATCATGGACCGGTTTTCCCGGTAATCCGTATTTGCT (site CGATAATCTCG)
recombinant UMI read abundance (log10): 0

CGATCATCATGGACCGGTTTTCCCGGTAATCCGTATTTGCT (site CGATACTCTAG)
recombinant UMI read abundance (log10): 0

CGATCATCATGGACCGGTTTTCCCGGTAATCCGTATTTGCT (site CGATCAACTAC)
recombinant UMI read abundance (log10): 0.0107

CGATCATCATGGACCGGTTTTCCCGGTAATCCGTATTTGCT (site CGATCAACTAG)
recombinant UMI read abundance (log10): 0

CGATCATCATGGACCGGTTTTCCCGGTAATCCGTATTTGCT (site CGATCAACTCG)
recombinant UMI read abundance (log10): 0

CGATCATCATGGACCGGTTTTCCCGGTAATCCGTATTTGCT (site CGATCACCTAG)
recombinant UMI read abundance (log10): 0

CGATCATCATGGACCGGTTTTCCCGGTAATCCGTATTTGCT (site CGATCACCTAT)
recombinant UMI read abundance (log10): 0.0275

CGATCATCATGGACCGGTTTTCCCGGTAATCCGTATTTGCT (site CGATCACCTGG)
recombinant UMI read abundance (log10): 0.009

CGATCATCATGGACCGGTTTTCCCGGTAATCCGTATTTGCT (site CGATCAGCTAA)
recombinant UMI read abundance (log10): 0.00801

CGATCATCATGGACCGGTTTTCCCGGTAATCCGTATTTGCT (site CGATCAGCTAG)
recombinant UMI read abundance (log10): 0

CGATCATCATGGACCGGTTTTCCCGGTAATCCGTATTTGCT (site CGATCAGCTTG)
recombinant UMI read abundance (log10): 0

CGATCATCATGGACCGGTTTTCCCGGTAATCCGTATTTGCT (site CGATCATCTAA)
recombinant UMI read abundance (log10): 0

CGATCATCATGGACCGGTTTTCCCGGTAATCCGTATTTGCT (site CGATCATCTAC)
recombinant UMI read abundance (log10): 0

CGATCATCATGGACCGGTTTTCCCGGTAATCCGTATTTGCT (site CGATCATCTAG)
recombinant UMI read abundance (log10): 1.82

CGATCATCATGGACCGGTTTTCCCGGTAATCCGTATTTGCT (site CGATCATCTAT)
recombinant UMI read abundance (log10): 0

CGATCATCATGGACCGGTTTTCCCGGTAATCCGTATTTGCT (site CGATCATCTCC)
recombinant UMI read abundance (log10): 0.00455

CGATCATCATGGACCGGTTTTCCCGGTAATCCGTATTTGCT (site CGATCATCTCG)
recombinant UMI read abundance (log10): 0

CGATCATCATGGACCGGTTTTCCCGGTAATCCGTATTTGCT (site CGATCATCTGG)
recombinant UMI read abundance (log10): 0

CGATCATCATGGACCGGTTTTCCCGGTAATCCGTATTTGCT (site CGATCATCTGT)
recombinant UMI read abundance (log10): 0

CGATCATCATGGACCGGTTTTCCCGGTAATCCGTATTTGCT (site CGATCATCTTA)
recombinant UMI read abundance (log10): 0

CGATCATCATGGACCGGTTTTCCCGGTAATCCGTATTTGCT (site CGATCATCTTG)
recombinant UMI read abundance (log10): 0

CGATCATCATGGACCGGTTTTCCCGGTAATCCGTATTTGCT (site CGATCCACTAG)
recombinant UMI read abundance (log10): 0.00991

CGATCATCATGGACCGGTTTTCCCGGTAATCCGTATTTGCT (site CGATCCTCTAC)
recombinant UMI read abundance (log10): 0.00344

CGATCATCATGGACCGGTTTTCCCGGTAATCCGTATTTGCT (site CGATCCTCTAG)
recombinant UMI read abundance (log10): 0

CGATCATCATGGACCGGTTTTCCCGGTAATCCGTATTTGCT (site CGATCCTCTCG)
recombinant UMI read abundance (log10): 0.00562

CGATCATCATGGACCGGTTTTCCCGGTAATCCGTATTTGCT (site CGATCGCCTAG)
recombinant UMI read abundance (log10): 0.00385

CGATCATCATGGACCGGTTTTCCCGGTAATCCGTATTTGCT (site CGATCGTCTAG)
recombinant UMI read abundance (log10): 0

CGATCATCATGGACCGGTTTTCCCGGTAATCCGTATTTGCT (site CGATCGTCTAT)
recombinant UMI read abundance (log10): 0

CGATCATCATGGACCGGTTTTCCCGGTAATCCGTATTTGCT (site CGATCGTCTGG)
recombinant UMI read abundance (log10): 0

CGATCATCATGGACCGGTTTTCCCGGTAATCCGTATTTGCT (site CGATCTGCTAG)
recombinant UMI read abundance (log10): 0

CGATCATCATGGACCGGTTTTCCCGGTAATCCGTATTTGCT (site CGATCTTCTAA)
recombinant UMI read abundance (log10): 0

CGATCATCATGGACCGGTTTTCCCGGTAATCCGTATTTGCT (site CGATCTTCTAG)
recombinant UMI read abundance (log10): 0

CGATCATCATGGACCGGTTTTCCCGGTAATCCGTATTTGCT (site CGATCTTCTTG)
recombinant UMI read abundance (log10): 0

CGATCATCATGGACCGGTTTTCCCGGTAATCCGTATTTGCT (site CGATGACCTAG)
recombinant UMI read abundance (log10): 0

CGATCATCATGGACCGGTTTTCCCGGTAATCCGTATTTGCT (site CGATGATCTAG)
recombinant UMI read abundance (log10): 0

CGATCATCATGGACCGGTTTTCCCGGTAATCCGTATTTGCT (site CGATGATCTAT)
recombinant UMI read abundance (log10): 0.00469

CGATCATCATGGACCGGTTTTCCCGGTAATCCGTATTTGCT (site CGATGATCTGG)
recombinant UMI read abundance (log10): 0

CGATCATCATGGACCGGTTTTCCCGGTAATCCGTATTTGCT (site CGATGGTCTAG)
recombinant UMI read abundance (log10): 0

CGATCATCATGGACCGGTTTTCCCGGTAATCCGTATTTGCT (site CGATTAGCTAG)
recombinant UMI read abundance (log10): 0.0161

CGATCATCATGGACCGGTTTTCCCGGTAATCCGTATTTGCT (site CGATTATCTAA)
recombinant UMI read abundance (log10): 0

CGATCATCATGGACCGGTTTTCCCGGTAATCCGTATTTGCT (site CGATTATCTAG)
recombinant UMI read abundance (log10): 0

CGATCATCATGGACCGGTTTTCCCGGTAATCCGTATTTGCT (site CGATTATCTTG)
recombinant UMI read abundance (log10): 0

CGATCATCATGGACCGGTTTTCCCGGTAATCCGTATTTGCT (site CGATTTTCTAG)
recombinant UMI read abundance (log10): 0

CGATCATCATGGACCGGTTTTCCCGGTAATCCGTATTTGCT (site CGCCCATCTAG)
recombinant UMI read abundance (log10): 0.133

CGATCATCATGGACCGGTTTTCCCGGTAATCCGTATTTGCT (site CGCTAATCTAG)
recombinant UMI read abundance (log10): 0

CGATCATCATGGACCGGTTTTCCCGGTAATCCGTATTTGCT (site CGCTCAACTAG)
recombinant UMI read abundance (log10): 0

CGATCATCATGGACCGGTTTTCCCGGTAATCCGTATTTGCT (site CGCTCATCTAC)
recombinant UMI read abundance (log10): 0.00488

CGATCATCATGGACCGGTTTTCCCGGTAATCCGTATTTGCT (site CGCTCATCTAG)
recombinant UMI read abundance (log10): 0.295

CGATCATCATGGACCGGTTTTCCCGGTAATCCGTATTTGCT (site CGCTCATCTCG)
recombinant UMI read abundance (log10): 0

CGATCATCATGGACCGGTTTTCCCGGTAATCCGTATTTGCT (site CGCTCCTCTAG)
recombinant UMI read abundance (log10): 0

CGATCATCATGGACCGGTTTTCCCGGTAATCCGTATTTGCT (site CGGGCATCTAG)
recombinant UMI read abundance (log10): 0

CGATCATCATGGACCGGTTTTCCCGGTAATCCGTATTTGCT (site CGGTCAGCTAG)
recombinant UMI read abundance (log10): 0.0144
